The values below come from ChEMBL document CHEMBL1201862, “PubChem BioAssay data set” (2004).

Experiment [1] concerns the target T1, Tyrosine-protein phosphatase non-receptor type 22 (Homo sapiens, UniProt Q9Y2R2).
T1 sequence (Q9Y2R2 whole entry): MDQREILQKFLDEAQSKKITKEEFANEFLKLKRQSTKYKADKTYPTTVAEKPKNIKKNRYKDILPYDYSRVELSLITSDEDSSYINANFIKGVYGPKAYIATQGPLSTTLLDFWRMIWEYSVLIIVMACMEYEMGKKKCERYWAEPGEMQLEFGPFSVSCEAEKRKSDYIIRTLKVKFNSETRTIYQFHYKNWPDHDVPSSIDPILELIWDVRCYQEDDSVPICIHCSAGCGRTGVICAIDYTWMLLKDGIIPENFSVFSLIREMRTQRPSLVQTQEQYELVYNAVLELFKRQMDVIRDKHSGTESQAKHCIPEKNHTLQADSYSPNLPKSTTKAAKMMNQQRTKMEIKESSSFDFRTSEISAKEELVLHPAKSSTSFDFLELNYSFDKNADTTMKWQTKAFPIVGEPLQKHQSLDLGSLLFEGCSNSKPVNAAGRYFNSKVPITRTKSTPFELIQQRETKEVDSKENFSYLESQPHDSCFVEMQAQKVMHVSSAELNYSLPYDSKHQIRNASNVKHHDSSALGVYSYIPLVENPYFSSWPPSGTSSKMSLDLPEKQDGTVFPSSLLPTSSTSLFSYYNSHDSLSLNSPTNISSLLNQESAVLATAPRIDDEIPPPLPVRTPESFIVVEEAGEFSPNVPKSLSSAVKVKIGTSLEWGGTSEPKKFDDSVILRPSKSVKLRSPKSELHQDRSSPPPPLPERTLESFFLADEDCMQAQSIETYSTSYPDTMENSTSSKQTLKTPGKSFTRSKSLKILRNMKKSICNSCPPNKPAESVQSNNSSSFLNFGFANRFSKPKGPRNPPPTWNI
The experiment can be described thus: inhibition of lymphoid tyrosine phosphatase LYP – biochemical, pCAP fluorogenic substrate, fluorescence, set 3, SAR follow-up (AID 449727). It counts as functional.

The target in experiment [2] is T2, Tyrosine-protein phosphatase non-receptor type 7 (Homo sapiens, UniProt P35236).
T2 sequence (P35236 whole entry): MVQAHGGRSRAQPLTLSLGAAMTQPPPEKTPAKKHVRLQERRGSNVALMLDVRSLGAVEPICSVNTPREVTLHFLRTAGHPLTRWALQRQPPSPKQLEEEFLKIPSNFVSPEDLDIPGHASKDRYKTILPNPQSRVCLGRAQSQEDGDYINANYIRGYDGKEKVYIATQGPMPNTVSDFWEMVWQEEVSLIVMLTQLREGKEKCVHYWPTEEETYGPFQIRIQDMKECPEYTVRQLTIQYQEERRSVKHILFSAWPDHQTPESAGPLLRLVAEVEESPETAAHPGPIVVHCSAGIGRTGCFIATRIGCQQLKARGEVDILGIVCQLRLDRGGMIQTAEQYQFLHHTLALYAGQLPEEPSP
As to the kind of experiment: inhibition of hematopoietic tyrosine phosphatase HePTP – biochemical, set 2, SAR follow-up (AID 449736). It counts as functional.

The target of experiment [3] is Large T antigen (Simian virus 40, UniProt P03070). It counts as functional, Betapolyomavirus macacae.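 Further: Confirmatory-stage PubChem screen for compounds that inhibit SV40 T antigen.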
The target of experiment [4] is Induced myeloid leukemia cell differentiation protein Mcl-1 (Homo sapiens, UniProt Q07820). It counts as functional.
The target of experiment [5] is T1, Tyrosine-protein phosphatase non-receptor type 22. The experiment can be described thus: SAR LYP1 Fluorescent Assay using OMFP substrate for In Vitro dose response studies - Set 3. [Related pubchem assays (depositor defined):AID1779, AID1784, AID2140, AID2686]. In kind it is functional.
Experiment [6] deals with Tyrosine-protein phosphatase non-receptor type 12 (Homo sapiens, UniProt Q05209). As to the kind of experiment: SAR Selectivity Analysis of small molecule inhibitors of PEST using pCAP in a fluorescence assay. [Related pubchem assays (depositor defined):AID1779, AID1784, AID2135]. It counts as functional.
Experiment [7] in a line: compound autofluorescence in calcium buffer – biochemical, fluorescence, no RTF in test wells, artefact control for cardiac thin filament activator project, dose response (AID 504697).
Experiment [8] addresses Troponin, cardiac muscle (Homo sapiens, UniProt P19429+P45379+P63316). The experiment can be described thus: Fluorescence-based biochemical high throughput dose response assay for activators of the calcium sensitivity of cardiac Regulated Thin Filaments (RTF). [Related pubchem assays (depositor defined):AID493008, AID493018, AID504382, AID504383]. In kind it is protein-complex assay.

In experiment [9] the target is T3, G-protein coupled receptor 55 (Homo sapiens, UniProt Q9Y2T6). As to the kind of experiment: inhibition of LPI-stimulated GPR55 beta-arrestin translocation – imaging, U2OS, beta-arrestin-GFP, LPI agonist, primary screen (AID 2013).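 Further: antagonist potency measured as reduced agonist-driven arrestin aggregation.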 In kind it is functional.
Experiment [10] in a line: blockers of HIV-1 ZM109 envelope-driven cell-cell fusion – HeLa effector, CEM target cells, luciferase, cherry-pick, dose response (AID 652058).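 Further: luciferase signal from HIV-1 Env mediated cell-cell fusion of effector and target cells.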 In kind it is functional, cell-based.
A short description of experiment [11]: off-target signal loss in HeLa-CEM21 co-culture – HeLa F-luc CTL cells, cherry-picked, counter-screen for HIV-1 Env fusion inhibitor project, dose response (AID 652040).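 Further: potency for signal decrease marking cytotoxic or nonspecific inhibition.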 It counts as functional, cell-based.
Experiment [12] in a line: blockers of HIV-1 envelope-mediated cell-cell fusion – cherry-pick, dose response (AID 652057). It counts as functional, cell-based.
Experiment [13] concerns the target T4, G-protein coupled receptor 35 (Homo sapiens, UniProt Q9HC97). The experiment can be described thus: SAR analysis of Agonists of the GPR35 Receptor using an Image-Based Assay - Set 2. [Related pubchem assays (depositor defined):AID2013, AID2026]. In kind it is functional.
Experiment [14] deals with T5, Cannabinoid receptor 1 (Homo sapiens, UniProt P21554). As to the kind of experiment: SAR analysis of antagonists of the Cannabinoid Receptor 1 using an Image-Based Assay - Set 2. [Related pubchem assays (depositor defined):AID2013, AID2026]. It counts as functional.
A short description of experiment [15]: viability loss in CEM21 cells – cell-based, CellTiter-Glo luminescence, cherry-picked, cytotoxicity control for viral fusion inhibitor project, dose response (AID 652042).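 Further: potency for signal decrease meaning cytotoxicity.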 In kind it is functional.
Experiment [16] has as its target T6, X-box-binding protein 1 (Homo sapiens, UniProt P17861).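 Further: confirmatory dose-response counter-screen serving a CHOP assay.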
T6 sequence (P17861 whole entry): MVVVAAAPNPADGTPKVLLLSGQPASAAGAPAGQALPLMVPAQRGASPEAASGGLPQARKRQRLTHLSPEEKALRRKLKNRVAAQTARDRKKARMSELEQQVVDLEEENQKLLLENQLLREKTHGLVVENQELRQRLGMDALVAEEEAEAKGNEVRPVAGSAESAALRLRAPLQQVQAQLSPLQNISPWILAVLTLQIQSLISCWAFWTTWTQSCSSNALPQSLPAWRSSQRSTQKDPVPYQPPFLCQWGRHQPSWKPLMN
It counts as functional, Cricetulus griseus.

Experiment [17] addresses T3, G-protein coupled receptor 55. The experiment can be described thus: blockade of LPI-induced GPR55 arrestin translocation – imaging, U2OS, beta-arrestin-GFP, LPI agonist, set 2, SAR follow-up (AID 2820). It counts as functional.
Experiment [18] can be described thus: HIV-1 AD8 envelope cell-cell fusion blockers – cherry-pick, dose response (AID 652062).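 Further: luciferase signal from cell-cell fusion driven by HIV-1 clade B AD8 Env; potency is for inhibitors of fusion seen as a drop in luminescence.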 It counts as functional, cell-based.
For experiment [19], the target named is T7, Cannabinoid receptor 2 (Homo sapiens, UniProt P34972). As to the kind of experiment: SAR analysis of agonists of the Cannabinoid Receptor 2 using an Image-Based Assay. [Related pubchem assays (depositor defined):AID2013, AID2026]. It counts as functional.
The target in experiment [20] is T5, Cannabinoid receptor 1. The experiment can be described thus: SAR analysis of agonists of the Cannabinoid Receptor 1 using an Image-Based Assay - Set 2. [Related pubchem assays (depositor defined):AID2013, AID2026]. In kind it is functional.
Experiment [21] has as its target T7, Cannabinoid receptor 2. The experiment can be described thus: SAR analysis of antagonists of the Cannabinoid Receptor 2 using an Image-Based Assay. [Related pubchem assays (depositor defined):AID2013, AID2026]. In kind it is functional.
Experiment [22] has as its target T4, G-protein coupled receptor 35. The experiment can be described thus: SAR analysis of Antagonists of the GPR35 Receptor using an Image-Based Assay - Set 3. [Related pubchem assays (depositor defined):AID2013, AID2026]. It counts as functional.
The target in experiment [23] is T5, Cannabinoid receptor 1. As to the kind of experiment: SAR analysis of antagonists of the Cannabinoid Receptor 1 using an Image-Based Assay - Set 4. [Related pubchem assays (depositor defined):AID2013, AID2026]. It counts as functional.
The target in experiment [24] is T4, G-protein coupled receptor 35. The experiment can be described thus: SAR analysis of Antagonists of the GPR35 Receptor using an Image-Based Assay - Set 6. [Related pubchem assays (depositor defined):AID2013, AID2026]. In kind it is functional.
Experiment [25] addresses T3, G-protein coupled receptor 55. As to the kind of experiment: SAR Analysis of Selective Antagonists of GPR55 using an Image-Based Assay - Set 4. [Related pubchem assays (depositor defined):AID2013, AID2026]. It counts as functional.
Experiment [26] addresses T7, Cannabinoid receptor 2. As to the kind of experiment: SAR analysis of agonists of the Cannabinoid Receptor 2 using an Image-Based Assay - Set 3. [Related pubchem assays (depositor defined):AID2013, AID2026]. In kind it is functional.
The target of experiment [27] is T5, Cannabinoid receptor 1. The experiment can be described thus: SAR analysis of agonists of the Cannabinoid Receptor 1 using an Image-Based Assay - Set 4. [Related pubchem assays (depositor defined):AID2013, AID2026]. In kind it is functional.
The target in experiment [28] is T7, Cannabinoid receptor 2. The experiment can be described thus: SAR analysis of antagonists of the Cannabinoid Receptor 2 using an Image-Based Assay - Set 3. [Related pubchem assays (depositor defined):AID2013, AID2026]. It counts as functional.
The target of experiment [29] is T4, G-protein coupled receptor 35. As to the kind of experiment: SAR analysis of Agonists of the GPR35 Receptor using an Image-Based Assay - Set 4. [Related pubchem assays (depositor defined):AID2013, AID2026]. In kind it is functional.
Experiment [30] has as its target CAAX prenyl protease 2 (Saccharomyces cerevisiae S288c, UniProt Q03530). In kind it is biochemical.
Experiment [31] in a line: toxicity toward cultured mammalian cells – cell-based, plate reader, cherry-pick samples, cytotoxicity control, dose response (AID 504397). In kind it is functional.

Values joined by “and” are separate entries in the source; they are usually repeats but may differ in a detail not shown here. Equal values may be shown once. Active and inactive are the calls of the source.

T5 sequence (P21554 whole entry, the tested form may be a part): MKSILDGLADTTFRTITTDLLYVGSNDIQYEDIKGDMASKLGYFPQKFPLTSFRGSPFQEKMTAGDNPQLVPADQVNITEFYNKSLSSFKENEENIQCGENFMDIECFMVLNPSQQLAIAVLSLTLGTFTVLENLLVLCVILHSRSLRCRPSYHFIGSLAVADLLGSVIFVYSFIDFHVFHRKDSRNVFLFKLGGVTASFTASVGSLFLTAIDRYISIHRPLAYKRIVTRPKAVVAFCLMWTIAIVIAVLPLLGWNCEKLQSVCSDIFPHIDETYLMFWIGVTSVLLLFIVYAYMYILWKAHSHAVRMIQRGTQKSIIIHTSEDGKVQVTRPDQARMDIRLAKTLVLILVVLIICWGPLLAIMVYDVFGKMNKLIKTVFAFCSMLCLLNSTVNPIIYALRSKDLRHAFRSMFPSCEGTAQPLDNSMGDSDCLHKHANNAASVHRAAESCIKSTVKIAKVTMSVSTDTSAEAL
T4 sequence (Q9HC97 whole entry): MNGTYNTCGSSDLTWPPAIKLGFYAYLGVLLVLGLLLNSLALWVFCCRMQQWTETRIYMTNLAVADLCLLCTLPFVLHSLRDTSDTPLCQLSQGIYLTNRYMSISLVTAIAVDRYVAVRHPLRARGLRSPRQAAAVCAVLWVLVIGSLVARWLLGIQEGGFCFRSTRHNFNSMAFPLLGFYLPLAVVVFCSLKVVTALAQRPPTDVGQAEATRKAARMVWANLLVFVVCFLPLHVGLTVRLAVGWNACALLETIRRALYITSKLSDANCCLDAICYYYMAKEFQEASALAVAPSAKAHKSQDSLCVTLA
T3 sequence (Q9Y2T6 whole entry, the tested form may be a part): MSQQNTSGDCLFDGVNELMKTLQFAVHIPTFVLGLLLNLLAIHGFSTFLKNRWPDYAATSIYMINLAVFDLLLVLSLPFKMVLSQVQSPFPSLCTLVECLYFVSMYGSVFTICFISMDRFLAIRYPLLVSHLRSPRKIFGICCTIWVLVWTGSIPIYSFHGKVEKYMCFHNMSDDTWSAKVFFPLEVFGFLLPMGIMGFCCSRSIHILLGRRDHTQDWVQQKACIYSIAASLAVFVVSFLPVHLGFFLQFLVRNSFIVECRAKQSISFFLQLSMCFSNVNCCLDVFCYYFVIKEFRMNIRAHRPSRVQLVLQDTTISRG
T7 sequence (P34972 whole entry): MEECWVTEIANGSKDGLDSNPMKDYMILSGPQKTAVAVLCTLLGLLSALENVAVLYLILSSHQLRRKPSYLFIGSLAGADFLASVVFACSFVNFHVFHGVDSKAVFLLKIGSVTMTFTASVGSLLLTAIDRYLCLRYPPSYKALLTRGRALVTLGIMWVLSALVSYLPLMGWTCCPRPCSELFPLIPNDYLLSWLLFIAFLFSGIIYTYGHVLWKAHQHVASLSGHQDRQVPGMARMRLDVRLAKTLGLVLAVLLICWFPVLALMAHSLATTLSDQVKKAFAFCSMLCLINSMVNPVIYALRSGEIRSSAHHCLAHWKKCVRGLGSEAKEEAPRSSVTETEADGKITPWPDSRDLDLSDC
Chain of Tyrosine-protein phosphatase non-receptor type 12 (Q05209 whole entry): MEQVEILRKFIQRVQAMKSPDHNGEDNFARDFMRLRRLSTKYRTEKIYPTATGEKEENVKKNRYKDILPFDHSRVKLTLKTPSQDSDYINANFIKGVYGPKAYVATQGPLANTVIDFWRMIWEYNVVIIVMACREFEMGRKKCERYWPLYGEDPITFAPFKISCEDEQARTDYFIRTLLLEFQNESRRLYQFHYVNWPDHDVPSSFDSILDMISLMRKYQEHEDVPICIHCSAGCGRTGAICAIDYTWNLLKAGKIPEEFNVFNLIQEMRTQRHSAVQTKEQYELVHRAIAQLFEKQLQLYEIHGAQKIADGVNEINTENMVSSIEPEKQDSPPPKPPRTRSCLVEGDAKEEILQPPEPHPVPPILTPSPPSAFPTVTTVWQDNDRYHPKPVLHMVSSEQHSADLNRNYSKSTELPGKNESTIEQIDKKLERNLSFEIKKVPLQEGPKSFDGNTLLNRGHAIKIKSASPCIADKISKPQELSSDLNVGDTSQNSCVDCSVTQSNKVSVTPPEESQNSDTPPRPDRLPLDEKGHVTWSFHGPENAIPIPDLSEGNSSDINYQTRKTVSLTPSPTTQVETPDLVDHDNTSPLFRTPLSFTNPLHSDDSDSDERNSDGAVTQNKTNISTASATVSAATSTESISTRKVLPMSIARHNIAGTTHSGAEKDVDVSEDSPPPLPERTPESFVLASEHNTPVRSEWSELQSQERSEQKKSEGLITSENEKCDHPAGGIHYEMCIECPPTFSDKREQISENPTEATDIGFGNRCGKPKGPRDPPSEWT
Chain of CAAX prenyl protease 2 (Q03530 whole entry): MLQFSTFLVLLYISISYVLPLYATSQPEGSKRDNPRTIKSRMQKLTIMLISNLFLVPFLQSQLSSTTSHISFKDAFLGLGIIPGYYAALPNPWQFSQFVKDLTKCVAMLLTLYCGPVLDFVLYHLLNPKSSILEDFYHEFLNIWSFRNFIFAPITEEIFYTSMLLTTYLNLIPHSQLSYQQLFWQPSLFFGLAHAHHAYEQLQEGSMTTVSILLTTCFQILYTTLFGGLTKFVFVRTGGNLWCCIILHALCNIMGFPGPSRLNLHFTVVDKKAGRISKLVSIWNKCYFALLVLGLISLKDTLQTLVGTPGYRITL
Chain of Induced myeloid leukemia cell differentiation protein Mcl-1 (Q07820 whole entry): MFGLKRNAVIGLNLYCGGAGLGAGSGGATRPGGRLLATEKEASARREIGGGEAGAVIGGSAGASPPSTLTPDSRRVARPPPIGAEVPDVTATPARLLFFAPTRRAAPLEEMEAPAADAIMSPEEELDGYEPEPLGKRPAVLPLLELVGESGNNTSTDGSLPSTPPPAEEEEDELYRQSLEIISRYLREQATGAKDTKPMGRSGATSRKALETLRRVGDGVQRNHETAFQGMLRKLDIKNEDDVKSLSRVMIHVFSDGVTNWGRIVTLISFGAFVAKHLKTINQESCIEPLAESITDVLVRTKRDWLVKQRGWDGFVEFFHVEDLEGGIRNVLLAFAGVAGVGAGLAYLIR
Chain of Large T antigen (P03070 whole entry): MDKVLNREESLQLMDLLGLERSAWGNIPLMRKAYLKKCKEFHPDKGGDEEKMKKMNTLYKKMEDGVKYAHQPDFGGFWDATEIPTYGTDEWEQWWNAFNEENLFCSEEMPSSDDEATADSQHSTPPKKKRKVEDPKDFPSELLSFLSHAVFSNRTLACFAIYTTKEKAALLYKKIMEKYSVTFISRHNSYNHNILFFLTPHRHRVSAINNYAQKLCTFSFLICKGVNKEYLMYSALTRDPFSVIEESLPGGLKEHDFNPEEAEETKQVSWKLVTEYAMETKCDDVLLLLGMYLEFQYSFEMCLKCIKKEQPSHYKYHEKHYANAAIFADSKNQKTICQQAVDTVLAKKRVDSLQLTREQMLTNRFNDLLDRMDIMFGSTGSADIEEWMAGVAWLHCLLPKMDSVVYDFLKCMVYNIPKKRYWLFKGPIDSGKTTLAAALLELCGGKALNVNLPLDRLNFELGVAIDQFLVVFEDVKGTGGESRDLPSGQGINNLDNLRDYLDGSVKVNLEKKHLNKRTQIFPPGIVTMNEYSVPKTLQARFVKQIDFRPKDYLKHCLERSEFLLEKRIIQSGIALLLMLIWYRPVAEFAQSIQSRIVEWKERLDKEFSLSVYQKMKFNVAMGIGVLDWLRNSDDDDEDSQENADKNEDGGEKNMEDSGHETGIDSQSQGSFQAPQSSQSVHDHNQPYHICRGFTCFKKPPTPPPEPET

In the case of `CC(/C=C1\SC(=S)N(CCCC(=O)Nc2ccc(C(=O)O)c(O)c2)C1=O)=C\c1ccccc1`, the IC50 was 37.9 µM (active) and 40.9 µM (active) in experiment [1]; 739 nM (active) and 703 nM (active) in experiment [2]; > 100 µM (active) in experiment [3]; 1.56 µM (active) in experiment [4]; 49.1 µM (active) and 44.9 µM (active) in experiment [5]; 14 µM (active) and 9.91 µM (active) in [6].

Turning to `N#C/C(=C/c1ccc(-c2ccccc2)o1)c1nc(-c2cccs2)cs1`, the figures for the EC50 in experiment [7] and in experiment [8] were > 7.94 µM (active) and 0.615 µM (active), respectively.

On to `CC1=CC(C)(C)N2C(=O)C3(SCC(=O)N3c3ccc(F)cc3)c3cc(C)cc1c32` (stereo unspecified), for which the IC50 was 4.09 µM (active) in [9]; 6.41 µM (active) in experiment [14]; 1.42 µM (active) in experiment [17]; > 32 µM (inactive) in experiment [21]; > 32 µM (inactive) in experiment [22]. The concentration at half-maximal activity (AC50) in experiment [10] was 1.13 µM (active); in [11], 43.1 µM (active); in [12] it was 23.7 µM (active); in [15], 53.1 µM (active); in experiment [18], 21.8 µM (active). Moreover, the EC50 in [13], in [19] and in [20] was > 32 µM (inactive) in each case. In addition, the “Absolute IC50 (XBP1)” value in [16] is below 10 µM.

On to `Cc1nc(N2CCN(C(=O)C3CCCCC3)CC2)c2c3c(sc2n1)CCCC3`, for which the IC50 in experiment [23] is 3.05 µM (active); in experiment [24], > 32 µM (inactive); in experiment [25], 9.24 µM (active); in experiment [28], > 16.8 µM (inactive). Further, the EC50 in experiment [26], in experiment [27] and in experiment [29] was > 32 µM (inactive) each time.

Regarding `Cc1ccsc1/C=N/NC(=O)c1nnn(-c2nonc2N)c1C(C)C`, the AC50 in experiment [30] is 0.87 µM (active); in experiment [31], 67.6 µM (active).
